Experimental data taken from ChEMBL document CHEMBL4043203, “Synthesis and biological evaluations of new nitric oxide-anti-inflammatory drug hybrids” (Bioorg Med Chem Lett, 2017).

Tests used:
Rattus norvegicus [1] = assay: Ulcerogenic activity in Wistar albino rat assessed as ulcer index at 50 mg/kg, po treated for 3 successive days measured at 2 hrs post last dose; type: toxicity, organism-based, Wister; conditions: in vivo
Rattus norvegicus [2] = assay: Antiinflammatory activity in Wistar albino rat assessed as inhibition of carrageenan-induced left hind paw edema at 50 mg/kg, po pretreated for 1 hr followed by carrageenan addition measured after 2 hrs relative to control; type: functional; conditions: Wister
Rattus norvegicus [3] = assay: Ulcerogenic activity in Wistar albino rat assessed as relative ulcerogenicity at 50 mg/kg, po treated for 3 successive days measured at 2 hrs post last dose relative to celecoxib; type: toxicity, organism-based, Wister; conditions: in vivo
[4] = Selectivity index, ratio of IC50 for ovine COX1 to IC50 for recombinant human COX2
Rattus norvegicus [5] = assay: Antiinflammatory activity in po dosed Wistar albino rat assessed as inhibition of carrageenan-induced left hind paw edema pretreated for 1 hr followed by carrageenan addition measured after 2 hrs; type: functional; conditions: Wister
[6] = biological target: T1, Prostaglandin G/H synthase 2 (Homo sapiens, UniProt P35354); assay: Inhibition of recombinant human COX2 using arachidonic acid as substrate by colorimetric enzyme immune assay
T1 sequence (P35354 whole entry): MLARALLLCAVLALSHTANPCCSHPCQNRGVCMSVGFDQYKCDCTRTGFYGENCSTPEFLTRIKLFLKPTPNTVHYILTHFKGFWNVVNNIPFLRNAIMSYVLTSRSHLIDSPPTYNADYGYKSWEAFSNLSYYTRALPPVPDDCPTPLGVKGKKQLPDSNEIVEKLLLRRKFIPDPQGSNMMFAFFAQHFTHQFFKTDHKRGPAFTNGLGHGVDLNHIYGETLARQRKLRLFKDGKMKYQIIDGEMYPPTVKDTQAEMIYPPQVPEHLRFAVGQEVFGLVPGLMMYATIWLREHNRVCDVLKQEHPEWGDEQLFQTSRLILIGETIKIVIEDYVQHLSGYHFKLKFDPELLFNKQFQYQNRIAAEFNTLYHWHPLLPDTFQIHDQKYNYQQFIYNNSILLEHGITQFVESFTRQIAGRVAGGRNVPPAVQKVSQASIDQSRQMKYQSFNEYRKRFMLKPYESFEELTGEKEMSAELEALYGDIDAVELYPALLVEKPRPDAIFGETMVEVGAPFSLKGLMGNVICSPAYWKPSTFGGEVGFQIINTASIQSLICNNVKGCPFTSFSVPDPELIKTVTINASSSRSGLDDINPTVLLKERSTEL

[7] = biological target: T2, Prostaglandin G/H synthase 1 (Ovis aries, UniProt P05979); assay: Inhibition of ovine COX1 using arachidonic acid as substrate by colorimetric enzyme immune assay
T2 sequence (P05979 whole entry): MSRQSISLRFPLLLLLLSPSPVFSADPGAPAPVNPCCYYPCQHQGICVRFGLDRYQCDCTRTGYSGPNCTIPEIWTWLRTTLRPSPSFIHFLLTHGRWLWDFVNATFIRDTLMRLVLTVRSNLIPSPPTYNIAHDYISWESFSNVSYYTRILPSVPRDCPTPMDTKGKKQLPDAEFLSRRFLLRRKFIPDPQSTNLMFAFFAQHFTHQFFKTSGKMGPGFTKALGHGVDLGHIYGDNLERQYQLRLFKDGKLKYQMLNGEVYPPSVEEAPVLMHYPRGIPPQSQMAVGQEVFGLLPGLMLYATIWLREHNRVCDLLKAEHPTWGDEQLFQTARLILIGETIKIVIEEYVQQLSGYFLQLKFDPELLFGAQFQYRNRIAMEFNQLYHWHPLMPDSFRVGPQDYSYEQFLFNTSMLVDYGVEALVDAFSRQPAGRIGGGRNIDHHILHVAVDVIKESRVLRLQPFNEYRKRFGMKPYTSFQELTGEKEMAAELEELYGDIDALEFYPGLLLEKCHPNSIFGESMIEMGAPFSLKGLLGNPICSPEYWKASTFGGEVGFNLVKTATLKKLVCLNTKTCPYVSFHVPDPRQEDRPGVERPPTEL

Rattus norvegicus [8] = assay: Antiinflammatory activity in Wistar albino rat assessed as serum nitric oxide level at 50 mg/kg, po treated for 3 successive days measured at 2 hrs post last dose by Griess reagent based colorimetric assay (reference value: 147.90 +/- 31.76 micromol/L); type: functional, Wister
Rattus norvegicus [9] = organism: Rattus norvegicus; assay: Ulcerogenic activity in Wistar albino rat assessed as lesion in stomach after 48 hrs by hematoxylin and eosin staining based microscopic analysis; type: toxicity, Wister; conditions: in vivo
Rattus norvegicus [10] = organism: Rattus norvegicus; assay: Ulcerogenic activity in Wistar albino rat assessed as minimum vasocapillary dilation in stomach after 48 hrs by hematoxylin and eosin staining based microscopic analysis; type: toxicity, Wister; conditions: in vivo
Rattus norvegicus [11] = organism: Rattus norvegicus; assay: Ulcerogenic activity in Wistar albino rat assessed as abdominal perforation in stomach after 48 hrs by hematoxylin and eosin staining based microscopic analysis; type: toxicity, Wister; conditions: in vivo
Rattus norvegicus [12] = organism: Rattus norvegicus; assay: Ulcerogenic activity in Wistar albino rat assessed as loss of mucous in stomach after 48 hrs by hematoxylin and eosin staining based microscopic analysis; type: toxicity, Wister; conditions: in vivo

| Ratio IC50 [4] | IC50 [6] | IC50 [7] | Compound | UI (Rattus norvegicus [1]) | inhibition in vivo at 50 mg/kg (Rattus norvegicus [2]) | fold change (FC) (Rattus norvegicus [3]) | ED50 (Rattus norvegicus [5]) | Activity (Rattus norvegicus [8]) | Activity (Rattus norvegicus [9]) | Activity (Rattus norvegicus [10]) | Activity (Rattus norvegicus [11]) | Activity (Rattus norvegicus [12]) |
| --- | --- | --- | --- | --- | --- | --- | --- | --- | --- | --- | --- | --- |
| 7.84 | 0.78 µM | 5.88 µM | Cc1c(-c2nnc(-c3ccccc3)c3conc23)cnn1-c1ccccc1 | 1.76 | 50% | 5.06 | 50 mg/kg | 314.4 µmol/L |  |  |  |  |
| 4.38 | 1.55 µM | 6.8 µM | Cc1c(-c2c(N=O)nc3ncccn23)cnn1-c1ccccc1 | 0.33 | 62% | 1 | 38 mg/kg | 386.3 µmol/L | Non-Toxic | Non-Toxic |  |  |
|  |  |  | COc1ccc2c(c1)c(CC(=O)O)c(C)n2C(=O)c1ccc(Cl)cc1 [INDOMETHACIN] |  |  |  |  |  |  |  | Toxic | Toxic |
| 7.94 | 1.28 µM | 10.2 µM | Cc1ccc(-c2nnc(-c3cnn(-c4ccccc4)c3C)c3nocc23)cc1 | 0.33 | 54% | 1 | 46 mg/kg | 273.1 µmol/L |  |  |  |  |
| 2.02 | 4.5 µM | 9.11 µM | Cc1c(C(=O)c2conc2C(=O)c2cnn(-c3ccccc3)c2C)cnn1-c1ccccc1 | 0.33 |  | 1 |  | 286.2 µmol/L |  |  |  |  |
| 2.04 | 4.2 µM | 8.6 µM | Cc1c(C2=C(N=O)Oc3ccccc3N2)cnn1-c1ccccc1 | 2 | 56% | 6.06 | 45 mg/kg | 335.3 µmol/L |  |  |  |  |
| 5.25 | 1.75 µM | 9.2 µM | Cc1c(-c2nc3ccccn3c2N=O)cnn1-c1ccccc1 | 2 | 65% | 6.06 | 35 mg/kg | 402.6 µmol/L |  |  |  |  |
| 4.03 | 1.12 µM | 4.52 µM | Cc1ccc(C(=O)c2conc2C(=O)c2cnn(-c3ccccc3)c2C)cc1 | 1.33 | 45% | 4.03 | 56 mg/kg | 346.5 µmol/L |  |  |  |  |
| 1.39 | 6.6 µM | 9.2 µM | Cc1c(-c2nc3ccccc3nc2N=O)cnn1-c1ccccc1 | 3 | 59% | 9.09 | 40 mg/kg | 140.1 µmol/L |  |  |  |  |
| 4.59 | 1.22 µM | 5.6 µM | Cc1c(C2=C(N=O)Oc3cccnc3N2)cnn1-c1ccccc1 | 0.33 | 64% | 1 | 35 mg/kg | 415.3 µmol/L |  |  |  |  |
| 1.46 | 6.88 µM | 10.1 µM | Cc1c(-c2nnc(-c3cnn(-c4ccccc4)c3C)c3nocc23)cnn1-c1ccccc1 | 1.33 |  | 4.03 |  | 318.8 µmol/L | Non-Toxic | Non-Toxic |  |  |
| 4.2 | 2.33 µM | 9.8 µM | Cc1c(C(=O)/C(Cl)=N/O)cnn1-c1ccccc1 | 5 | 50% | 15.15 | 50 mg/kg | 315.5 µmol/L |  | Non-Toxic |  | Non-Toxic |
| 4.21 | 1.83 µM | 7.72 µM | Cc1c(C2=C(N=O)Sc3ccccc3N2)cnn1-c1ccccc1 | 0.33 | 56% | 1 | 45 mg/kg | 348.3 µmol/L |  |  |  |  |
| 5.77 | 1.61 µM | 9.22 µM | Cc1c(C2=C(N=O)Nc3ccccc3N2)cnn1-c1ccccc1 | 2.33 | 57% | 7.06 | 40 mg/kg | 370.1 µmol/L |  |  |  |  |
| 7.44 | 1.49 µM | 11.1 µM | Cc1c(C(=O)c2nocc2C(=O)c2ccccc2)cnn1-c1ccccc1 | 0.33 | 41% | 1 | 61 mg/kg | 372 µmol/L |  |  |  |  |
|  |  |  | Cc1ccc(-c2cc(C(F)(F)F)nn2-c2ccc(S(N)(=O)=O)cc2)cc1 [CELECOXIB] | 0.33 | 65% |  | 35 mg/kg |  | Non-Toxic | Non-Toxic |  |  |
